Reference: patent US20050215478A1, “Amino acid sequences capable of facilitating penetration across a biological barrier” (priority 2002, published 2005)
No end group written: not given here.

Assay: Translocation of ^125I-labeled peptide from mouse intestine loop into blood and organs (Example 1)
Assay type: in vivo, BALB/c mice
Conditions: similar experiments; injected into a mouse intestinal loop; fraction of the full conjugate IBW-002
Source text: The tested peptide, representing a penetrating peptide and a radio-labeled probe in a contiguous construct of SEQ ID NO 3 and SEQ ID NO 17, hereby named IBW 002 (Novetide, lot 40139-45, sequence: Ac-NYYDITLALAGICQSARLVQQLAGGGKGGK-NH2 (SEQ ID NO:22), was ^125I-labeled using the Bolton Hunter Reagent (Biochem. J. 133:529-39 (1973)). The labeled peptide was loaded on a Sephadex G10 column, washed with phosphate buffer and eluted with 3M Tiocyanate in DDW+50% n-butanol. The peak, containing 6 fractions, was kept and used for in vivo experiments.
Four male BALB/c mice, 9-10 weeks old, were deprived of food, 18 hours prior to the experiment.
The mice were anesthetized by i.p. injection of 0.05 ml of a mixture of 0.15 ml xylazine+0.85 ml of ketamin. A 2 cm long incision was made along the center of the abdomen, through the skin and abdominal wall. An intestine loop was gently pulled out through the incision and placed on wet gauze beside the animal. The loop remained intact through the entire procedure and was kept wet during the whole time. The tested compound was injected into the loop, 0.2 ml/ mouse, containing around 200,000 cpm, using a 26G needle. Fifteen minutes post injection the tip of the tail was cut and a 50 μl blood sample was drawn into a glass capillary. This was repeated 30 and 60 minutes post injection. The animals were subsequently sacrificed. The following organs were removed: epididymal fat, kidneys, liver, lungs and brain. Radioactivity in each organ and in blood samples was counted. A 5 μl sample of the injected solution was counted to determine the total injected cpm per mouse.
The total radioactive labeling injected per mouse was 224,160 cpm. Total cpm in the blood was calculated based on the 50 μl blood sample drawn out at different time points post injection, in the assumption that total blood volume of each mouse is 2 ml.
For “GGKGGK (also: 125I label, site not given here) [SEQ ID NO:17, reference compound]”, the “average amount recovered from the blood and various organs, relative to that obtained with IBW-002” value was “about ⅕”.

Assay: Relative potency of penetrating peptides as tested in mice (Example 3)
Assay type: in vivo
Conditions: IBW-002 = 100
Source text: Relative Potency of Penetrating Peptides as Tested in Mice.
With “AcNYFLVNLAFAEASMAAFNTVVNFGGKGGKNH2 (Ac-NYFLVNLAFAEASMAAFNTVVNFGGKGGK-NH2) [IBW-007]” the “Relative potency (%)” value was 66%. For “AcNYHDIVLALAGVCQSARLVHQLAGGKGGKNH2 [IBW-006]”, the “Relative potency (%)” value was 77%. For “AcMYYDITLALAGICQSARLVQQLAGGGKGGKNH2 (Ac-MYYDITLALAGICQSARLVQQLAGGGKGGK-NH2) [IBW-002V2]”, the “Relative potency (%)” value was 80%. For “AcMRNLTRTSLLLAGLCTAAQMVFVGGGKGGKNh2 (Ac-MRNLTRTSLLLAGLCTAAQMVFVGGGKGGK-NH2) [IBW-005]”, the “Relative potency (%)” value was 51%. With “AcNLPPIVLAVIGICAAVFLLQQYVGGGKGGKNH2 (Ac-NLPPIVLAVIGICAAVFLLQQYVGGGKGGK-NH2) [IBW-003]” the “Relative potency (%)” value was 37%. For “AcMYDITLALAGICQSARIVQQLAGGKGGKNH2 [IBW-002V3]”, the “Relative potency (%)” value was 77%. With “AcMNYYDITLALAGICQSARLVQQLAGGGKGGKNH2 (Ac-MNYYDITLALAGICQSARLVQQLAGGGKGGK-NH2) [IBW-002V1]” the “Relative potency (%)” value was 73%. In the case of “AcNYFIVNLALADLCMAAFNAAFNFGGGKGGKNH2 (Ac-NYFIVNLALADLCMAAFNAAFNFGGGKGGK-NH2) [IBW-004]”, the “Relative potency (%)” value was 63%.
